Measurements published in patent US20240425523A1, “Compounds for the Degradation of EGFR Kinase” (Beigene Switzerland GMBH, priority 2023, published 2024).

What was measured:
Format in all cases: cell-based
[1] = target: T1, EGFR L858R (BaF3-L858R cells) (Homo sapiens, UniProt P00533, L858R); experiment: Cell degradation of EGFR, HTRF assay, BaF3-L858R cells; details: 16 h treatment; for DC50: EGFR degradation; for Dmax: maximum percentage of degradation
T1 construct: host or cells: BaF3
Procedure, shortened: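 EGFR L858R levels measured by HTRF antibody pair in lysed BaF3-L858R cells after 16 h compound exposure (8-point 5-fold series from 10 uM final, 37° C). Degradation is relative to DMSO-only cells; DC50 fitted with Hill equation, Dmax taken as the largest percent loss.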

[2] = target: T2, EGFR-L858R/C797S (H1975-clone #8 cells) (Homo sapiens, UniProt P00533, C797S/L858R); experiment: Cell degradation of EGFR, HTRF assay, H1975-clone#8 (L858R/C797S) cells; details: 16 h treatment; for DC50: EGFR degradation; for Dmax: maximum percentage of degradation
T2 construct: expressed in transfected cells; host or cells: H1975 (endogenous EGFR knocked out, clone #8)

[3] = target: T3, p-EGFR L858R (BaF3-L858R cells) (Homo sapiens, UniProt P00533, L858R); experiment: Cell p-EGFR inhibition assay, HTRF, BaF3-L858R cells; details: 16 h treatment; for Imax (%): maximum percentage of pEGFR inhibition; for IC50: pEGFR inhibition
T3 construct: host or cells: BaF3
Procedure, shortened: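 BaF3-L858R cells treated 16 h at 37 °C, 5% CO2 with compound from 10 uM top, 5-fold dilutions, 8 doses, in 0.1% DMSO medium. Lysates read overnight by HTRF p-EGFR antibodies; IC50 fitted to four-parameter curve against DMSO high control.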

[4] = target: p-EGFR Del19/C797S (H1975-clone #23 cells) (Homo sapiens, UniProt P00533); experiment: Cell p-EGFR inhibition assay, HTRF, H1975-clone#23 (DEL19/C797S) cells; details: 16 h treatment; for Imax (%): maximum percentage of pEGFR inhibition; for IC50: pEGFR inhibition
Procedure, shortened: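 Phospho-EGFR read by overnight HTRF on lysates, normalized to DMSO-treated high control; IC50, Hill slope and Imax fitted. Compounds were applied for 16 h (10 uM top, 5-fold steps, 8 doses) to an H1975 single clone carrying only exogenous Del19/C797S EGFR after sgRNA knockout of endogenous copies.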

DC50 [1] [nM]	Dmax [1] [%]	DC50 [2] [nM]	Dmax [2] [%]	Imax (%) [3] [%]	IC50 [3] [nM]	Imax (%) [4] [%]	IC50 [4] [nM]	SMILES
0.73	91.3	3.07	88.8	89.34	2.05	99.96	1.6	Cc1cc2cc(n1)-c1c(C)nn(C)c1OC[C@H]1CC[C@H](C1)CN1/C(=N/C2=O)Nc2ccc(N3CCN(C4CCN(c5cc(F)c([C@H]6CCC(=O)NC6=O)c(F)c5)CC4)C[C@@H]3CF)cc21 [Example 211, (R)-3-(2,6-difluoro-4-(4-((R)-3-(fluoromethyl)-4-((7R,7^3S,E)-1^1,1^3,2^6-trimethyl-3-oxo-5^2,5^3-dihydro-1^1H,5^1H-9-oxa-4-aza-5(2,1)-benzo[d]imidazola-2(2,4)-pyridina-1(4,5)-pyrazola-7(1,3)-cyclopentanacyclononaphane-5^6-yl)piperazin-1-yl)piperidin-1-yl)phenyl)piperidine-2,6-dione]
3.08	89.1	1.91	86.9	104.33	2.32	104.78	1.4	Cc1cc2cc(n1)-c1c(C)nn(C)c1OC[C@H]1CCC(C1)CN1/C(=N/C2=O)Nc2ccc(N3CCN(C4CCN(c5cc(F)c([C@H]6CCC(=O)NC6=O)c(F)c5)CC4)[C@@H](C)C3)cc21 [Example 135, (R)-3-(2,6-difluoro-4-(4-((S)-2-methyl-4-((7^1R,7^3S,E)-1^1,1^3,2^6-trimethyl-3-oxo-5^2,5^3-dihydro-1^1H,5^1H-9-oxa-4-aza-5(2,1)-benzo[d]imidazola-2(2,4)-pyridina-1(4,5)-pyrazola-7(1,3)-cyclopentanacyclononaphane-5^6-yl)piperazin-1-yl)piperidin-1-yl)phenyl)piperidine-2,6-dione]
3.84	82.6	3.14	58.5	101	10.5	97.9	1.2	Cc1cc2cc(n1)-c1cnn(C)c1OC[C@H]1CC[C@H](C1)CN1/C(=N/C2=O)Nc2ccc(N3CCN(C4CCN(c5ccc(OC6CCC(=O)NC6=O)cc5)CC4)CC3)cc21 (stereo partly drawn) [Example 57, 3-(4-(4-(4-((7^1R,7^3S,E)-1^1,2^6-dimethyl-3-oxo-5^2,5^3-dihydro-1^1H,5^1H-9-oxa-4-aza-5(2,1)-benzo[d]imidazola-2(2,4)-pyridina-1(4,5)-pyrazola-7(1,3)-cyclopentanacyclononaphane-5^6-yl)piperazin-1-yl)piperidin-1-yl)phenoxy)piperidine-2,6-dione]
4.53	70.7	3.24	52.2	96.8	11	98.9	0.5	Cc1cc2cc(n1)-c1cnn(CCO)c1OC[C@H]1CCC(C1)CN1/C(=N/C2=O)Nc2ccc(N3CCN(C4CCN(c5cc(F)c([C@H]6CCC(=O)NC6=O)c(F)c5)CC4)CC3)cc21 [Example 122, (R)-3-(2,6-difluoro-4-(4-(4-((7^1R,7^3S,E)-1^1-(2-hydroxyethyl)-2^6-methyl-3-oxo-5^2,5^3-dihydro-1^1H,5^1H-9-oxa-4-aza-5(2,1)-benzo[d]imidazola-2(2,4)-pyridina-1(4,5)-pyrazola-7(1,3)-cyclopentanacyclononaphane-5^6-yl)piperazin-1-yl)piperidin-1-yl)phenyl)piperidine-2,6-dione]
2.02	87.2	2.24	78.4	93.5	10.2	101.1	1	COC[C@@H]1CN(c2ccc3c(c2)N2CC4CC[C@H](COc5c(cnn5C)-c5cc(cc(C)n5)C(=O)/N=C/2N3)C4)CCN1C1CCN(c2ccc(C3CCC(=O)NC3=O)nc2C)CC1 (stereo partly drawn) [Example 73, 3-(5-(4-((S)-4-((7^1R,7^3S,E)-1^1,2^6-dimethyl-3-oxo-5^2,5^3-dihydro-1^1H,5^1H-9-oxa-4-aza-5(2,1)-benzo[d]imidazola-2(2,4)-pyridina-1(4,5)-pyrazola-7(1,3)-cyclopentanacyclononaphane-5^6-yl)-2-(methoxymethyl)piperazin-1-yl)piperidin-1-yl)-6-methylpyridin-2-yl)piperidine-2,6-dione]
7.56	89.7	4.41	100	101.37	6.66	102.48	3.18	Cc1cc2cc(n1)-c1c(C)nn(C)c1OC[C@H]1CC[C@H](C1)CN1/C(=N/C2=O)Nc2ccc(N3[C@@H](C)CN(C4CCN(c5cc(F)c([C@H]6CCC(=O)NC6=O)c(F)c5)CC4)C[C@@H]3C)cc21 [Example 198, (R)-3-(4-(4-((3S,5S)-3,5-dimethyl-4-((7^1R,7^3S,E)-1^1,1^3,2^6-trimethyl-3-oxo-5^2,5^3-dihydro-1^1H,5^1H-9-oxa-4-aza-5(2,1)-benzo[d]imidazola-2(2,4)-pyridina-1(4,5)-pyrazola-7(1,3)-cyclopentanacyclononaphane-5^6-yl)piperazin-1-yl)piperidin-1-yl)-2,6-difluorophenyl)piperidine-2,6-dione]
2.8	84.4	2.92	87	97.42	11.1	100.23	1.56	Cc1cc2cc(n1)-c1c(C)nn(C)c1OC[C@H]1CC[C@H](C1)CN1/C(=N/C2=O)Nc2ccc(N3CC(N(C)C4CCN(c5cc(F)c([C@H]6CCC(=O)NC6=O)c(F)c5)CC4)C3)cc21 [Example 153, (R)-3-(2,6-difluoro-4-(4-(methyl(1-((7^1R,7^3S,E)-1^1,1^3,2^6-trimethyl-3-oxo-5^2,5^3-dihydro-1^1H,5^1H-9-oxa-4-aza-5(2,1)-benzo[d]imidazola-2(2,4)-pyridina-1(4,5)-pyrazola-7(1,3)-cyclopentanacyclononaphane-5^6-yl)azetidin-3-yl)amino)piperidin-1-yl)phenyl)piperidine-2,6-dione]
3.49	70.5	2.69	77.3	94.6	17.1	99	0.7	Cc1cc2cc(n1)-c1cnn(C)c1OC[C@H]1CCC(C1)CN1/C(=N/C2=O)Nc2ccc(N3CCC(N4CCC(Oc5cc(F)c([C@H]6CCC(=O)NC6=O)c(F)c5)CC4)CC3)cc21 [Example 113, (R)-3-(4-((1′-((7^1R,7^3S,E)-1^1,2^6-dimethyl-3-oxo-5^2,5^3-dihydro-1^1H,5^1H-9-oxa-4-aza-5(2,1)-benzo[d]imidazola-2(2,4)-pyridina-1(4,5)-pyrazola-7(1,3)-cyclopentanacyclononaphane-5^6-yl)-[1,4′-bipiperidin]-4-yl)oxy)-2,6-difluorophenyl)piperidine-2,6-dione]
4.01	79.7	2.1	64.7	109.3	6	100.5	0.5	Cc1cc2cc(n1)-c1cnn(C)c1OC[C@H]1CCC(C1)CN1/C(=N/C2=O)Nc2ccc(N3CCN([C@H]4CCN(c5cc(F)c([C@H]6CCC(=O)NC6=O)c(F)c5)C[C@H]4F)CC3)cc21 (single isomer, unassigned) [Example 84]
